Results published in PubChem BioAssay AID248 (DTP/NCI, 2004).
“And” between values parts separate entries of the source, which are not always exact repeats. Equal entries are not always repeated. Inconclusive results and toxic doses are left out.

Test system: L1210 leukemia ip in BDF1 mice, survival T/C
Experiment: NCI In Vivo Anticancer Drug Screen. Data for tumor model L1210 Leukemia (intraperitoneal) in B6D2F1 (BDF1) mice
Conditions: endpoint: mean survival time, higher = longer survival
Summary of the method: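 Ratio derived from survival: compound-dosed mice over vehicle-dosed mice, all bearing a transplantable tumor.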

[1] = dose: 100.0 mg/kg/injection, schedule: Q04DX002 (ip), vehicle: saline
[2] = dose: 200.0 mg/kg/injection, schedule: Q04DX002 (ip), vehicle: saline
[3] = dose: 100.0 mg/kg/injection, schedule: Q01DX001 (ip), vehicle: Klucel (hydroxypropylcellulose) (HPC)
[4] = dose: 200.0 mg/kg/injection, schedule: Q01DX001 (ip), vehicle: Klucel (hydroxypropylcellulose) (HPC)
[5] = dose: 400.0 mg/kg/injection, schedule: Q01DX001 (ip), vehicle: Klucel (hydroxypropylcellulose) (HPC)
[6] = dose: 100.0 mg/kg/injection, schedule: Q04DX003 (ip), vehicle: saline with Tween-80
[7] = dose: 200.0 mg/kg/injection, schedule: Q04DX003 (ip), vehicle: saline with Tween-80
[8] = dose: 100.0 mg/kg/injection, schedule: Q04DX003 (ip), vehicle: Klucel (hydroxypropylcellulose) (HPC)

For `Cc1ccc2cc(N(C)C)ccc2[n+]1C`, the T/C (dose: 3.13 mg/kg/injection, schedule: Q04DX003 (ip), vehicle: saline) was 101 % of control, the T/C (dose: 6.25 mg/kg/injection, schedule: Q04DX003 (ip), vehicle: saline) was 106 % of control and the T/C (dose: 12.5 mg/kg/injection, schedule: Q04DX003 (ip), vehicle: saline) was 96 % of control and 109 % of control.
`O=C(Nc1ccc(S(=O)(=O)O)c2ccccc12)c1ccc(C(=O)Nc2ccc(S(=O)(=O)O)c3ccccc23)cc1` was tested, and the T/C (dose: 62.5 mg/kg/injection, schedule: Q01DX Z (ip), vehicle: carboxymethylcellulose (CMC)) was 92 % of control, the T/C (dose: 125.0 mg/kg/injection, schedule: Q01DX Z (ip), vehicle: carboxymethylcellulose (CMC)) was 89 % of control and the T/C (dose: 250.0 mg/kg/injection, schedule: Q01DX Z (ip), vehicle: carboxymethylcellulose (CMC)) was 90 % of control. The T/C (dose: 500.0 mg/kg/injection, schedule: Q01DX Z (ip), vehicle: carboxymethylcellulose (CMC)) was 89 % of control.
`CC1(C)N=C(N)Nc2nnc(-c3ccc(F)cc3)n21` was tested, and the T/C (dose: 100.0 mg/kg/injection, schedule: Q04DX003 (ip), vehicle: saline sonified) was 89 % of control, the T/C (dose: 200.0 mg/kg/injection, schedule: Q04DX003 (ip), vehicle: saline sonified) was 101 % of control and the T/C (dose: 400.0 mg/kg/injection, schedule: Q04DX003 (ip), vehicle: saline sonified) was 89 % of control.
In the case of `COC(=O)NS(=O)(=O)OC`, the T/C [1] is reported as 103 % of control and the T/C [2] is reported as 110 % of control.
`CC1(C)OB(C(B2OC(C)(C)C(C)(C)O2)=C(CCl)CCl)OC1(C)C` was tested, and the T/C [3] was 101 % of control, the T/C [4] was 88 % of control and the T/C [5] was 103 % of control.
`C=CCNC(=O)N(CC)C(=NCC)c1ccc(NC(=O)c2ccc(C(=O)Nc3ccc(C(=NCC)N(CC)C(=O)NCC=C)cc3)cc2)cc1` was tested, and the T/C (dose: 3.87 mg/kg/injection, schedule: Q01DX015 (ip), vehicle: methylcellulose (MC)) was 104 % of control.
With `CC(C)(C)CC(C)(C)c1ccc(OCCOc2ccc(NS(=O)(=O)c3ccc(N)c([N+](=O)[O-])c3)cc2)cc1` the T/C [6] was 94 % of control and the T/C [7] was 92 % of control.
In the case of `CC/C=N/Nc1ccnc(SCc2ccccc2)n1`, the T/C (dose: 100.0 mg/kg/injection, schedule: Q04DX003 (ip), vehicle: gum acacia) is reported as 103 % of control, the T/C (dose: 200.0 mg/kg/injection, schedule: Q04DX003 (ip), vehicle: gum acacia) is reported as 97 % of control and the T/C (dose: 400.0 mg/kg/injection, schedule: Q04DX003 (ip), vehicle: gum acacia) is reported as 94 % of control.
`Nc1nc(SCc2ccccc2)c2ncn(C3CC(O)C(CO)O3)c2n1` (stereo unspecified) was tested, and the T/C (dose: 7.0 mg/kg/injection, schedule: Q01DX015 (ip), vehicle: saline) was 118 % of control, the T/C (dose: 12.0 mg/kg/injection, schedule: Q01DX015 (ip), vehicle: saline) was 168 % of control and the T/C (dose: 20.0 mg/kg/injection, schedule: Q01DX015 (ip), vehicle: saline) was 172 % of control. For the same compound, the T/C (dose: 34.0 mg/kg/injection, schedule: Q01DX015 (ip), vehicle: saline) was 153 % of control, the T/C (dose: 100.0 mg/kg/injection, schedule: Q01DX005 (ip), vehicle: saline) was 97 % of control and the T/C (dose: 200.0 mg/kg/injection, schedule: Q01DX005 (ip), vehicle: saline) was 113 % of control. The T/C (dose: 400.0 mg/kg/injection, schedule: Q01DX001 (ip), vehicle: saline) was 157 % of control.
For `Nc1c(Br)cc2c(c1Br)Cc1cc([N+](=O)[O-])ccc1-2`, the T/C [6] was 104 % of control, the T/C [7] was 103 % of control and the T/C (dose: 400.0 mg/kg/injection, schedule: Q04DX003 (ip), vehicle: saline with Tween-80) was 98 % of control.
In the case of `CC(=O)N(C)NC(=O)c1ccccn1`, the T/C (dose: 12.5 mg/kg/injection, schedule: Q01DX009 (ip), vehicle: water) is reported as 103 % of control, the T/C (dose: 25.0 mg/kg/injection, schedule: Q01DX009 (ip), vehicle: water) is reported as 103 % of control and the T/C (dose: 50.0 mg/kg/injection, schedule: Q01DX009 (ip), vehicle: water) is reported as 105 % of control.
In the case of `CC(C)N(Cl)S(C)(=O)=O`, the T/C (dose: 100.0 mg/kg/injection, schedule: Q04DX003 (ip), vehicle: saline) is reported as 89 % of control.
For `CC1(C)C2CC3C(=CCCC3(Cl)C#N)C1C2` (stereo unspecified), the T/C (dose: 100.0 mg/kg/injection, schedule: Q01DX009 (ip), vehicle: Klucel (hydroxypropylcellulose) (HPC)) was 98 % of control, the T/C [8] was 106 % of control and the T/C (dose: 200.0 mg/kg/injection, schedule: Q01DX009 (ip), vehicle: Klucel (hydroxypropylcellulose) (HPC)) was 102 % of control. For the same compound, the T/C (dose: 200.0 mg/kg/injection, schedule: Q04DX003 (ip), vehicle: Klucel (hydroxypropylcellulose) (HPC)) was 101 % of control, the T/C (dose: 400.0 mg/kg/injection, schedule: Q01DX009 (ip), vehicle: Klucel (hydroxypropylcellulose) (HPC)) was 93 % of control and the T/C (dose: 400.0 mg/kg/injection, schedule: Q04DX003 (ip), vehicle: Klucel (hydroxypropylcellulose) (HPC)) was 97 % of control.
With `CCOC(=O)CCCS` the T/C (dose: 75.0 mg/kg/injection, schedule: Q01DX001 (ip), vehicle: carboxymethylcellulose (CMC)) was 93 % of control and the T/C (dose: 150.0 mg/kg/injection, schedule: Q01DX001 (ip), vehicle: carboxymethylcellulose (CMC)) was 93 % of control.
With `C/C(=N/NC(=O)c1ccccc1)c1ccc(Cl)cc1Cl` the T/C (dose: 100.0 mg/kg/injection, schedule: Q04DX003 (ip), vehicle: other) was 97 % of control and the T/C (dose: 200.0 mg/kg/injection, schedule: Q04DX003 (ip), vehicle: other) was 108 % of control.
For `O=C(O)C1CCCN1C(=O)Cc1ccc2c(c1)OCO2` (stereo unspecified), the T/C (dose: 75.0 mg/kg/injection, schedule: Q01DX009 (ip), vehicle: Klucel (hydroxypropylcellulose) (HPC)) was 96 % of control, the T/C [3] was 98 % of control and the T/C (dose: 150.0 mg/kg/injection, schedule: Q01DX009 (ip), vehicle: Klucel (hydroxypropylcellulose) (HPC)) was 93 % of control. For the same compound, the T/C [4] was 95 % of control, the T/C (dose: 300.0 mg/kg/injection, schedule: Q01DX009 (ip), vehicle: Klucel (hydroxypropylcellulose) (HPC)) was 98 % of control and the T/C [5] was 92 % of control.
For `CCCC[n+]1[nH]oc(=O)c1C(=O)[O-]`, the T/C [8] was 98 % of control.
`Nc1ncnc2c1ncn2C1OC(COS(N)(=O)=O)C(O)C1O` (stereo unspecified) was tested, and the T/C (dose: 0.5 mg/kg/injection, schedule: Q01DX001 (ip), vehicle: saline) was 113 % of control.
In the case of `CC(=O)N1Cc2ncnc(N)c2C1`, the T/C (dose: 100.0 mg/kg/injection, schedule: Q01DX001 (ip), vehicle: carboxymethylcellulose (CMC)) is reported as 101 % of control, the T/C (dose: 200.0 mg/kg/injection, schedule: Q01DX001 (ip), vehicle: carboxymethylcellulose (CMC)) is reported as 95 % of control and the T/C (dose: 400.0 mg/kg/injection, schedule: Q01DX001 (ip), vehicle: carboxymethylcellulose (CMC)) is reported as 101 % of control.
`Cc1c(Br)c(C)c(Br)c(OCC(=O)O)c1Br` was tested, and the T/C (dose: 100.0 mg/kg/injection, schedule: Q04DX002 (ip), vehicle: Klucel (hydroxypropylcellulose) (HPC)) was 98 % of control and the T/C (dose: 200.0 mg/kg/injection, schedule: Q04DX002 (ip), vehicle: Klucel (hydroxypropylcellulose) (HPC)) was 109 % of control.
For `C=CC(=O)N1CN(C(=O)C=C)CN(C(=O)C=C)C1`, the T/C (dose: 1.25 mg/kg/injection, schedule: Q01DX009 (ip), vehicle: saline) was 99 % of control, the T/C (dose: 2.5 mg/kg/injection, schedule: Q01DX009 (ip), vehicle: saline) was 99 % of control and the T/C (dose: 5.0 mg/kg/injection, schedule: Q01DX009 (ip), vehicle: saline) was 104 % of control.
With `CC1(C)N=C(N)N=C(N)N1c1cccc(CCCCCc2ccccc2)c1` the T/C (dose: 25.0 mg/kg/injection, schedule: Q01DX001 (ip), vehicle: saline) was 94 % of control.
In the case of `Cc1cc(O)ccc1C1=NCC(C)(C)S1`, the T/C [1] is reported as 93 % of control, the T/C [2] is reported as 100 % of control and the T/C (dose: 400.0 mg/kg/injection, schedule: Q04DX002 (ip), vehicle: saline) is reported as 103 % of control.
With `COC1C(c2ccccc2)NC(=O)C(Br)(C#N)C1c1ccccc1` (stereo unspecified) the T/C (dose: 12.5 mg/kg/injection, schedule: Q01DX009 (ip), vehicle: saline with Tween-80) was 86 % of control, the T/C (dose: 25.0 mg/kg/injection, schedule: Q01DX009 (ip), vehicle: saline with Tween-80) was 86 % of control and the T/C (dose: 50.0 mg/kg/injection, schedule: Q01DX009 (ip), vehicle: saline with Tween-80) was 86 % of control.
For `Cc1cccc(C)c1NC(=O)N(CCCl)N=O`, the T/C (dose: 5.7 mg/kg/injection, schedule: Q01DX Z (oral), vehicle: carboxymethylcellulose (CMC)) was 150 % of control, the T/C (dose: 13.0 mg/kg/injection, schedule: Q01DX Z (oral), vehicle: carboxymethylcellulose (CMC)) was 206 % of control and the T/C (dose: 16.0 mg/kg/injection, schedule: Q01DX001 (ip), vehicle: carboxymethylcellulose (CMC)) was 192 % of control. For the same compound, the T/C (dose: 20.0 mg/kg/injection, schedule: Q01DX Z (oral), vehicle: carboxymethylcellulose (CMC)) was 170 % of control, the T/C (dose: 31.0 mg/kg/injection, schedule: Q01DX001 (ip), vehicle: carboxymethylcellulose (CMC)) was 308 % of control and the T/C (dose: 62.0 mg/kg/injection, schedule: Q01DX001 (ip), vehicle: carboxymethylcellulose (CMC)) was 156 % of control. For the same compound, the T/C (dose: 125.0 mg/kg/injection, schedule: Q01DX001 (ip), vehicle: carboxymethylcellulose (CMC)) was 156 % of control and the T/C (dose: 187.0 mg/kg/injection, schedule: Q01DX001 (ip), vehicle: carboxymethylcellulose (CMC)) was 91 % of control.
